Laboratory results reported in patent US20240285599A1, “Mature-Hepatocyte Transdifferentiation Suppressing Composition” (OSAKA UNIVERSITY, priority 2021, published 2024).

What was measured:
[1] = test system: TRAF3/PTEN knockdown primary human hepatocyte (PHH); assay: KRT19 mRNA quantification and immunoblotting (P52) in TRAF3/PTEN knockdown primary human hepatocyte; type: cell-based; details: PHH (PTKD #1); for increase in expression of P52 by knockdown of TRAF3 and PTEN: western blot
Description: Human hepatocyte chimeric mice were generated in accordance with the protocol of the previous report (Hasegawa M, et al. Biochem Biophys Res Commun. 2011; 405(3): 405-410). Ganciclovir was administered to each of highly immunocompromised NOG mice (TK-NOG) each having a liver in which a herpes simplex virus type 1 thymidine kinase transgene had been expressed to induce liver injury, followed by the transplantation of human hepatocytes. As described in the previous report (Murai K, et al. Sci Rep. 2020; 10(1): 941), primary human hepatocytes were collected from the human hepatocyte chimeric mice each having a chimeric liver rate of 90% or more by using a two-step collagenase-pronase reflux method. It was recognized by FACS that the human hepatocytes accounted for 90% or more of the collected cells. Those cells were spread on a collagen-coated dish and cultured.
(§1) The transfection of siRNA or a plasmid into cells was performed with Lipofectamine RNAiMAX Transfection Reagent (Thermo Fisher Scientific, Inc., USA) or Lipofectamine 2000 (Thermo Fisher Scientific, Inc., USA), respectively, and with Opti-MEM (Thermo Fisher Scientific, Inc., USA). The transfection of the siRNA was performed as follows: the cells were dispersed at a concentration of 100,000 cells/mL; 10 μM of the siRNA was mixed into 100 μL of the Opti-MEM at a ratio of 1 μL, and the mixture was left at rest for 5 minutes; and then 3 μL of the RNAiMAX was mixed into the mixture, and the whole was left at rest for 15 minutes, followed by administration to the supernatant of the previously dispersed cells. Further, a medium change was performed 24 hours thereafter.
A procedure for western blotting is as described in the previous report (Tanaka S, et al. Hepatology. 2016; 64(6): 1994-2014). The protein extracts of cells and animal tissues were prepared by using a lysis buffer having added thereto a protease inhibitor (Nacalai Tesque, Inc., Japan) and a phosphatase inhibitor (Nacalai Tesque, Inc., Japan). In western blotting for the detection of NIK, MG-132 (ChemScene, USA) was administered at a concentration of 5 μM 4 hours before protein recovery. The following antibodies were used in immunodetection: TRAF3 (1:1,000 Cell Signaling, #4729), PTEN (1:1,000 Cell Signaling, #9188), KRT19 (1:50,000 Abcam, #ab52625), p100/p52 (1:1,000 Cell Signaling, #4882), NIK (1:1,000 Cell Signaling, #4994), and β-actin (1:10,000 Sigma-Aldrich Co., LLC, #A5316). Anti-mouse IgG, HRP-linked whole Ab sheep (Cytiva, Japan), or anti-rabbit IgG, HRP-linked whole Ab donkey (Cytiva, Japan) was used as a secondary antibody, and luminescence analysis was performed with SuperSignal (trademark) West Pico PLUS Chemiluminescent Substrate (Thermo Fisher Scientific, Inc., USA).
Total RNA was extracted from a cell line and a human liver tissue with RNeasy Mini Kit (QIAGEN N.V., Nederland). Then, 1 μg of the total RNA was reverse-transcribed with ReverTra Ace qPCR RT Kit (Toyobo Co., Ltd., Tokyo) to synthesize complementary DNA. The mRNA expression of each of the following genes was analyzed through use of a TaqMan gene expression assay: human GAPDH (Hs02758991), human TRAF3 (Hs00936781), human PTEN (Hs02621230), human KRT19 (Hs00761767), human NIK (Hs01089753), mouse Gapdh (Mm09999915), mouse Traf3 (Mm00495752), mouse Pten (Mm00477208), mouse Krt19 (Mm00492980), mouse NIK (Mm00444166), and mouse Alb (Mm00802090). The gene expression amount of a human and the gene expression amount of a mouse were normalized to the expression amount of GAPDH.
The effect of TRAF3/PTEN inhibition on the expression of a bile duct marker in each of a primary human hepatocyte (hereinafter also referred to as “PHH”) and a human hepatoma cell line HepG2 cell (hereinafter also referred to as “HepG2”) was evaluated. The PHH and the HepG2 are each a mature hepatocyte having an albumin-producing ability. The TRAF3 and PTEN of each of the HepG2 and the PHH were knocked down with siRNA. […]

[2] = test system: human cholangiocarcinoma cell line HuCCA1; assay: Cell proliferation assay (IncuCyte) of cholangiocarcinoma cell line HuCCA1; type: cell-based
Description: A human hepatoma cell line HepG2, and human cholangiocarcinoma cell lines HuCCT1, HuCCA1, and KKU213 were obtained from the JCRB Cell Bank. The HepG2 and KKU213 cells were cultured in a Dulbecco's modified Eagle's medium (DMEM; Nacalai Tesque, Inc., Japan) having added thereto 10% heat-inactivated fetal calf serum (FCS; Gibco, USA). The HuCCT1 cells were cultured in an RPMI medium (Nacalai Tesque, Inc., Japan) containing 10% FCS. The HuCCA1 cells were cultured in D-MEM/Ham's F-12 (containing L-glutamine and phenol red) (Wako Pure Chemical Industries, Ltd., Japan) having added thereto 10% FCS. All the cells were cultured with a CO2 incubator at 37° C. The cells were detached with trypsin (Nacalai Tesque, Inc., Japan), and were passaged. Those cells were routinely examined for mycoplasma.
as §1
Hepatocytes or cholangiocarcinoma cells were inoculated on a 96-well plate, and their cell proliferation was analyzed with IncuCyte (trademark) Si (Sartorius AG, Germany) in accordance with the manufacturer's instructions.
Two kinds of NIK siRNA (the NIK KD #1 and the NIK KD #2) were introduced into each of human cholangiocarcinoma cell lines HuCCT1, HuCCA1, and KKU213 to knock down MAP3K14 (NIK). […]

[3] = NIK siRNA transfected, 72 h, FIG. 13
[4] = NIK siRNA transfected, cells recovered after 72 h culture, FIG. 13

NIK KD #2: siRNA of NIK, SEQ ID NO: 4 (sense) and 5 (antisense), from Thermo Fisher Scientific (sense GCAAAGAGCAAGAACCAAAUU; antisense UUUGGUUCUUGCUCUUUGCGU; listed as RNA, chemistry not given here)
significantly suppressed: increase in expression of P52 by knockdown of TRAF3 and PTEN [1, 3] | increase in expression of KRT19 by knockdown of TRAF3 and PTEN [1, 4] | proliferation of cholangiocarcinoma cells ([2]; NIK siRNA introduced, FIG. 19)

COc1cc(C(N)=O)nc(-c2cccc(C#C[C@]3(O)CCN(C)C3=O)c2)c1 [NIKSMI, (R)-6-(3-((3-hydroxy-1-methyl-2-oxopyrrolidin-3-yl)ethynyl)phenyl)-4-methoxypicolinamide]
significantly suppressed: increase in expression of KRT19 by knockdown of TRAF3 and PTEN ([1]; NIKSMI 9 μM added 24 h after start of culture, cells recovered 48 h later, FIG. 11) | increase in expression of P52 by knockdown of TRAF3 and PTEN ([1]; NIKSMI 9 μM, 48 h, FIG. 11) | proliferation of cholangiocarcinoma cells ([2]; 9 μM or 15 μM added at beginning of culture, FIG. 21B)

NIK KD #1: siRNA of NIK, SEQ ID NO: 2 (sense) and 3 (antisense), from Thermo Fisher Scientific (sense CAAACGCAAAGAGCAAGAAUU; antisense UUCUUGCUCUUUGCGUUUGCA; listed as RNA, chemistry not given here)
significantly suppressed: increase in expression of P52 by knockdown of TRAF3 and PTEN [1, 3] | increase in expression of KRT19 by knockdown of TRAF3 and PTEN [1, 4] | proliferation of cholangiocarcinoma cells ([2]; NIK siRNA introduced, FIG. 19)
